Results from PubChem BioAssay (NCI).
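In this assay, cells in 96-well plates receive the compound at five concentrations for 48 hours. Endpoints are linearly interpolated between the surrounding concentrations. The concentration for 50% growth inhibition is given as GI50. TGI is the concentration that stops growth completely.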

What follows are compounds tested on MDA-N (assay: growth of human tumour cells (NCI), 48 h).
In the case of `CCOP(=O)(OCC)C(c1ccc(F)cc1)N(C(=O)NC(F)(F)F)c1cccc(C(F)(F)F)c1` (stereo unspecified), the TGI is reported as > 100 µM.
In the case of `O=C1c2cccnc2-c2nc(-c3ccc(Cl)cc3)cc3c2c1nc1ccccc13`, the GI50 is reported as 40 µM and the TGI is reported as > 100 µM.
In the case of `Clc1ccc(-c2cc3nc4ccccc4nc3o2)cc1`, the TGI is reported as > 100 µM.

The compounds below were run on U251 CNS (assay: growth of human tumour cells (NCI), 48 h).
With `Cc1cc2nc(C=C(C(F)(F)F)C(F)(F)F)oc2cc1C` the TGI was > 10 µM.
`CCc1nc(N)nc(N)c1-c1ccc(NC)c([N+](=O)[O-])c1` was tested, and the TGI was > 100 µM.
For `CCOP(=O)(OCC)C(c1ccc(F)cc1)N(C(=O)NC(F)(F)F)c1cccc(C(F)(F)F)c1` (stereo unspecified), the TGI was > 100 µM.
`O=C1c2cccnc2-c2nc(-c3ccc(Cl)cc3)cc3c2c1nc1ccccc13` gave a GI50 of 9.24 µM and a TGI of 37.1 µM.
In the case of `Clc1ccc(-c2cc3nc4ccccc4nc3o2)cc1`, the TGI is reported as > 100 µM.

These compounds were tested on MALME-3M melanoma (assay: growth of human tumour cells (NCI), 48 h).
`Cc1cc2nc(C=C(C(F)(F)F)C(F)(F)F)oc2cc1C` was tested, and the TGI was 3.76 µM.
`CCc1nc(N)nc(N)c1-c1ccc(NC)c([N+](=O)[O-])c1` was tested, and the TGI was > 100 µM.
`CCOP(=O)(OCC)C(c1ccc(F)cc1)N(C(=O)NC(F)(F)F)c1cccc(C(F)(F)F)c1` (stereo unspecified) was tested, and the TGI was > 100 µM.
For `O=C1c2cccnc2-c2nc(-c3ccc(Cl)cc3)cc3c2c1nc1ccccc13`, the GI50 was 20.2 µM and the TGI was 91.5 µM.
With `Clc1ccc(-c2cc3nc4ccccc4nc3o2)cc1` the TGI was > 100 µM.

The compounds below were run on CCRF-CEM leukemia (assay: growth of human tumour cells (NCI), 48 h).
`Cc1cc2nc(C=C(C(F)(F)F)C(F)(F)F)oc2cc1C` showed a TGI of 6.74 µM.
In the case of `CCc1nc(N)nc(N)c1-c1ccc(NC)c([N+](=O)[O-])c1`, the TGI is reported as > 41.8 µM.
With `CCOP(=O)(OCC)C(c1ccc(F)cc1)N(C(=O)NC(F)(F)F)c1cccc(C(F)(F)F)c1` (stereo unspecified) the TGI was > 100 µM.
In the case of `O=C1c2cccnc2-c2nc(-c3ccc(Cl)cc3)cc3c2c1nc1ccccc13`, the GI50 is reported as > 100 µM and the TGI is reported as > 100 µM.
For `Clc1ccc(-c2cc3nc4ccccc4nc3o2)cc1`, the TGI was > 100 µM.

The compounds below were run on NCI-H522 lung (assay: growth of human tumour cells (NCI), 48 h).
`Cc1cc2nc(C=C(C(F)(F)F)C(F)(F)F)oc2cc1C` was tested, and the TGI was 6.35 µM.
In the case of `CCc1nc(N)nc(N)c1-c1ccc(NC)c([N+](=O)[O-])c1`, the TGI is reported as > 57.2 µM.
In the case of `CCOP(=O)(OCC)C(c1ccc(F)cc1)N(C(=O)NC(F)(F)F)c1cccc(C(F)(F)F)c1` (stereo unspecified), the TGI is reported as > 100 µM.
`O=C1c2cccnc2-c2nc(-c3ccc(Cl)cc3)cc3c2c1nc1ccccc13` was tested, and the GI50 was 21 µM and the TGI was > 100 µM.

Each compound was assayed on NCI/ADR-RES ovarian (assay: growth of human tumour cells (NCI), 48 h).
In the case of `Cc1cc2nc(C=C(C(F)(F)F)C(F)(F)F)oc2cc1C`, the TGI is reported as 5.93 µM.
`CCc1nc(N)nc(N)c1-c1ccc(NC)c([N+](=O)[O-])c1` was tested, and the TGI was > 100 µM.
`CCOP(=O)(OCC)C(c1ccc(F)cc1)N(C(=O)NC(F)(F)F)c1cccc(C(F)(F)F)c1` (stereo unspecified) was tested, and the TGI was > 100 µM.
With `O=C1c2cccnc2-c2nc(-c3ccc(Cl)cc3)cc3c2c1nc1ccccc13` the GI50 was 55.2 µM and the TGI was > 100 µM.
For `Clc1ccc(-c2cc3nc4ccccc4nc3o2)cc1`, the TGI was > 100 µM.

Each compound was assayed on HCC-2998 colon (assay: growth of human tumour cells (NCI), 48 h).
With `Cc1cc2nc(C=C(C(F)(F)F)C(F)(F)F)oc2cc1C` the TGI was 6.9 µM.
In the case of `CCc1nc(N)nc(N)c1-c1ccc(NC)c([N+](=O)[O-])c1`, the TGI is reported as 65.7 µM.
For `CCOP(=O)(OCC)C(c1ccc(F)cc1)N(C(=O)NC(F)(F)F)c1cccc(C(F)(F)F)c1` (stereo unspecified), the TGI was > 100 µM.
In the case of `O=C1c2cccnc2-c2nc(-c3ccc(Cl)cc3)cc3c2c1nc1ccccc13`, the GI50 is reported as > 100 µM and the TGI is reported as > 100 µM.
For `COc1c(C)cc2c(c1O)C1C3[C@H]4SC[C@@]5(NCCC6=C5NC5C=CC=CC65)C(=O)OCC(c5c6c(c(C)c(OC(C)=O)c54)OCO6)N3[C@@H](O)C(C2)N1C` (stereo partly specified), the TGI was 0.0109 µM.
In the case of `Clc1ccc(-c2cc3nc4ccccc4nc3o2)cc1`, the TGI is reported as > 100 µM.

The compounds below were run on K-562 leukemia (assay: growth of human tumour cells (NCI), 48 h).
`Cc1cc2nc(C=C(C(F)(F)F)C(F)(F)F)oc2cc1C` gave a TGI of 5.1 µM.
With `CCc1nc(N)nc(N)c1-c1ccc(NC)c([N+](=O)[O-])c1` the TGI was > 25.8 µM.
In the case of `CCOP(=O)(OCC)C(c1ccc(F)cc1)N(C(=O)NC(F)(F)F)c1cccc(C(F)(F)F)c1` (stereo unspecified), the TGI is reported as > 100 µM.
In the case of `O=C1c2cccnc2-c2nc(-c3ccc(Cl)cc3)cc3c2c1nc1ccccc13`, the GI50 is reported as 38.7 µM and the TGI is reported as > 100 µM.
`Clc1ccc(-c2cc3nc4ccccc4nc3o2)cc1` was tested, and the TGI was > 100 µM.
